From patent US20040192594A1 (priority 2002, published 2004)
Read-outs that look alike come from different tables or passages of the source.

Experiments:
[1] = biological target: Torpedo maramorta AchR (Torpedo marmorata, UniProt P02711); design: Relative Affinity: reference not given here; settings: cited from earlier work
[2] = tested on: mice; settings: mouse, in vivo, sc
[3] = tested on: cell lines in tissue culture
[4] = tested on: mice; settings: mouse, in vivo

Row | Compound | Relative Affinity [1] | IC50 ([1]; read-out: IC50) [µM] | Time to death (average) [2] [min] | Toxicity to cell lines [3] | Paralysis in mice injected with the toxin [4] | IC50 [1] [µM]
1 | alpha Bungarotoxin | 30,952.0 | 0.0084 | – | – | – | –
2 | C[N+](C)(C)CCOC(=O)CCCCCCC(=O)OCC[N+](C)(C)C.[I-].[I-] [Suderyldicholine] | 104.0 | 2.5 | – | – | – | –
3 | alpha cobratoxin | 1,529.0 | 0.17 | 20.5 | not toxic | very little or no paralysis | –
4 | CN1CCCC1c1cccnc1 (stereo not drawn) [Nicotine] | 0.19 | – | – | – | – | 1400
5 | COc1cc2c3cc1Oc1cc(ccc1O)C[C@@H]1c4c(cc(OC)c(O)c4Oc4ccc(cc4)C[C@@H]3N(C)CC2)CC[N+]1(C)C [d-Tubocurarine] | 76.5 | 3.4 | – | – | – | –
6 | C[N+](C)(C)CCOC(N)=O.[Cl-] [Carbamylcholinechloride] | 0.09 | – | – | – | – | 2800
